Assay results taken from PubChem BioAssay (NCI).
Where “and” joins values, the source holds several entries; their conditions need not be identical. Identical values can stand only once.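 96-well plates; 48 h exposure; 5 concentrations. Endpoints by linear interpolation between flanking doses. Not reached: highest tested concentration assigned. Abbreviation: GI50, concentration required for 50% inhibition of growth. TGI: total growth inhibition.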 Where a SMILES comes first, the peptide text is derived from it. [ ]: non-standard residue; d: D form. The star is where a group is joined. ξ: configuration not given here. X37 = O=C(OCc1ccccc1)[C@@H]1CCC[C@H]1N*; Fmoc = O=C(OCC1c2ccccc2-c2ccccc21)*; ξW = NC(Cc1c[nH]c2ccccc12)C(=O)O; ξF = NC(Cc1ccccc1)C(=O)O; Boc = CC(C)(C)OC(=O)*; ξK = NCCCCC(N)C(=O)O; ξT = CC(O)C(N)C(=O)O; OBn = c1ccc(CO*)cc1; Bn = c1ccc(C*)cc1; tBu = CC(C)(C)*

Experiments:
Assay in all cases: inhibition of tumour cell growth, NCI panel, 48 h
[1] = tested on: HCT-15 colon
[2] = tested on: RPMI-8226 leukemia
[3] = tested on: UACC-257 melanoma
[4] = tested on: MALME-3M melanoma
[5] = tested on: TK-10 renal
[6] = tested on: MOLT-4 leukemia
[7] = tested on: SR leukemia
[8] = tested on: MDA-MB-231 breast
[9] = tested on: A549 NSCLC
[10] = tested on: A498 renal
[11] = tested on: 786-0 renal

Structure (SMILES) | TGI [1] | TGI [2] | TGI [3] | TGI [4] | TGI [5] | TGI [6] | TGI [7] | TGI [8] | TGI [9] | TGI [10] | TGI [11] | GI50 [1] | GI50 [2] | GI50 [3] | GI50 [4] | GI50 [7] | GI50 [8] | GI50 [9] | GI50 [10]
CCC1=C(C)C2=NC1=CC1=NC(=C(CC)/C1=C/O)C=C1N=C3C(=C1C)C(=O)C(C(=O)OC)C3=C1NC(=C2)C(C)C1CCC(=O)OC (stereo unspecified) | > 100 µM | > 100 µM | > 100 µM | > 100 µM | > 100 µM | > 100 µM | > 100 µM | > 100 µM | > 100 µM | > 100 µM | > 100 µM |  |  |  |  |  |  |  | 
CC(=O)OCC1OC(n2c(-c3ccccc3)c(N=Nc3ccc(Cl)cc3)c(C)c(C#N)c2=S)C(OC(C)=O)C(OC(C)=O)C1OC(C)=O (stereo unspecified) | 29.1 µM and > 100 µM | > 100 µM | > 100 µM | > 100 µM | > 100 µM | 21.5 µM and > 100 µM | > 100 µM | > 100 µM | > 100 µM | 43.5 µM and 70.7 µM | > 100 µM and 88.6 µM | 7.59 µM and 59.8 µM | 6.64 µM and 37.9 µM | 16.5 µM and > 100 µM | 20.1 µM and > 100 µM | 11.5 µM and 34.9 µM | 20.3 µM and 45.2 µM | 6.86 µM and 22.1 µM | 2.78 µM and 19.1 µM
COc1ccc2c(c1)CC[C@@H]1C2CC[C@]2(C)OC(=O)CCC12 (stereo partly specified) | > 100 µM | > 100 µM | 32.1 µM | 36 µM | 97.8 µM | > 100 µM | > 100 µM | 11.5 µM | > 100 µM | > 100 µM | 17.7 µM |  |  |  |  |  |  |  | 
Cc1ccc(S(=O)(=O)OC2CN3CCC2CC3)cc1 (stereo unspecified) | > 100 µM | > 100 µM | > 100 µM | > 100 µM | > 100 µM | > 100 µM | > 100 µM | > 100 µM | > 100 µM | > 100 µM | > 100 µM |  |  |  |  |  |  |  | 
Cc1cn2c(/C=C3/C(=O)Nc4ccccc43)c(-c3ccccc3)nc2s1 | > 100 µM | > 100 µM | > 100 µM | > 100 µM | 51.2 µM | > 100 µM | > 100 µM | 57.7 µM | > 100 µM | > 100 µM | 42.4 µM |  |  |  |  |  |  |  | 
CC(=O)OCc1ccc(-c2nc(C#N)c(N)o2)o1 | > 10 µM | > 10 µM | > 10 µM | > 10 µM | > 10 µM | > 10 µM | > 10 µM | > 10 µM | > 10 µM |  | > 10 µM |  |  |  |  |  |  |  | 
CC(C)(C)[C@@H]1NC(=O)CN1C(=O)OCc1ccccc1 | > 100 µM | > 100 µM | > 100 µM | > 100 µM | > 100 µM | > 100 µM | > 100 µM | > 100 µM | > 100 µM | > 100 µM | > 100 µM |  |  |  |  |  |  |  | 
CC(C)(C)NCC(O)COc1cccc2[nH]c(C#N)cc12 (stereo unspecified) | > 100 µM | > 100 µM |  | > 100 µM | > 100 µM | > 100 µM | > 100 µM | > 100 µM | > 100 µM | > 100 µM | > 100 µM |  |  |  |  |  |  |  | 
COc1ccc2cc(C(=O)NCCc3ccccc3)ccc2c1OC | > 100 µM | > 100 µM | > 100 µM | > 100 µM |  | > 100 µM | > 100 µM | 87.4 µM | > 100 µM | > 100 µM | > 100 µM |  |  |  |  |  |  |  | 
CC1(C)OC1CC/C(=C/CBr)CBr (stereo unspecified) |  | 40.7 µM | 28.8 µM | 36.9 µM | 32.5 µM | 57.9 µM | 64.6 µM | 30.1 µM | 53.1 µM | 47.9 µM | 28.7 µM |  |  |  |  |  |  |  | 
CC(OC(C)(C)C)C(NC(=O)C(CCCCNC(=O)OC(C)(C)C)NC(=O)C(Cc1c[nH]c2ccccc12)NC(=O)C(Cc1ccccc1)NC(=O)OCC1c2ccccc2-c2ccccc21)C(=O)NC(Cc1ccccc1)C(=O)N[C@@H]1CCC[C@H]1C(=O)OCc1ccccc1 (stereo partly specified) (Fmoc-[ξF][ξW][ξK](Boc)[ξT](tBu)[ξF]-X37) | > 100 µM | > 100 µM | > 100 µM | > 100 µM | > 100 µM | > 100 µM | > 100 µM | > 100 µM | > 100 µM |  | > 100 µM |  |  |  |  |  |  |  | 
CC(C)CC(NC(=O)C(Cc1ccccc1)NC(=O)C(COCc1ccccc1)NC(=O)OC(C)(C)C)C(=O)OCc1ccccc1 (stereo not drawn) (Boc-Ser(Bn)-Phe-Leu-OBn; configuration not given here) | 76 µM | 33.2 µM | > 100 µM | > 100 µM | > 100 µM | 33.4 µM | 44.3 µM | 93 µM |  | > 100 µM | 30.8 µM |  |  |  |  |  |  |  | 
CCOc1ccc(N=NC2C(=O)N(C(=O)CC(=O)Nc3ccc(Cl)cc3)N=C2C)cc1 (stereo unspecified) |  | > 100 µM |  | > 100 µM | > 100 µM |  | > 100 µM | > 100 µM | > 100 µM | > 100 µM | > 100 µM |  |  |  |  |  |  |  | 
NC12c3c4cccc3Oc3cccc(c31)Oc1cccc(c12)O4 | > 50 µM | > 50 µM | > 50 µM |  |  | > 50 µM | > 50 µM | > 50 µM | > 50 µM | > 50 µM | > 50 µM |  |  |  |  |  |  |  | 
CCCCCCc1cc(C=O)sc1-c1ccc(-c2sc(-c3ccc(-c4ccc(-c5cc(CCCCCC)c(-c6ccc(-c7sc(C=O)cc7CCCCCC)s6)s5)s4)s3)cc2CCCCCC)s1 | > 100 µM | > 100 µM | > 100 µM | > 100 µM | > 100 µM | > 100 µM | > 100 µM | > 100 µM | > 100 µM | > 100 µM | > 100 µM |  |  |  |  |  |  |  | 
OC1(c2ccc(Cl)cc2)c2ccccc2C2=Nc3ccccc3CN21 (stereo unspecified) | > 100 µM | > 100 µM | > 100 µM | 92 µM | > 100 µM | > 100 µM | > 84.8 µM | > 100 µM | 28.6 µM | > 72.9 µM | 25.8 µM |  |  |  |  |  |  |  | 
COC(=O)c1ccc(/C=C/C2=CC(=O)C=CC2=O)cc1 | 36.8 µM | 4.49 µM | 34.8 µM | 36.9 µM | 44.4 µM | 7.11 µM | 12.7 µM | > 49.2 µM | > 100 µM | 38.6 µM | 26.1 µM |  |  |  |  |  |  |  | 
CCC(C#N)N(Cc1cccc(CN(C(C)=O)C(C#N)CC)c1)C(C)=O (stereo unspecified) | > 100 µM | > 100 µM | > 100 µM | > 100 µM | > 100 µM | > 100 µM | > 100 µM | > 100 µM | > 100 µM | > 100 µM | > 100 µM |  |  |  |  |  |  |  | 
CC(C)C[C@H](NC(=O)[C@@H](Cc1cccc2ccccc12)NC(=O)N1CCOCC1)B(O)O | 50.1 µM | 17.4 µM | 5.18 µM | 2.72 µM | 25.4 µM | > 100 µM | 19.4 µM | 20.3 µM | 68 µM | 18.1 µM | 19.7 µM |  |  |  |  |  |  |  | 
